Assay results taken from patent US6592911B2, “(−)-Olivil as antioxidant which is obtained from a new natural source namely Stereospermum personatum” (Council of Scientific and Industrial Research, priority 2001, dated 2003).

Experiment: In vitro free radical (DPPH) scavenging antioxidant potency
Assay type: biochemical
Settings: for 50% Radical scavenging concentration of compounds, Concentration: DPPH radical 500 μM in ethanol, tris-HCl buffer pH 7.4, 45 minutes in dark, absorbency at 517 nm, triplicate
Description: In Vitro Evaluation of Free Radical Scavenging Antioxidant Potency
Antioxidant activity of the compounds was tested for its capacity/potency to scavenge most widely used free radical, 1,1-diphenyl-2-picryl hyrazyl radical (DPPH). […] 200 μl of test compounds were reconstituted to 1 ml in tris-HCl buffer (pH 7.4). Equal volume of 500 μM of DPPH radical dissolved in ethanol was reacted with this. After incubation for 45 minutes in dark, the absorbency at 517 nm was recorded. Percent radical scavenging activity was calculated accordingly. All the readings were taken in triplicate.

| SMILES | 50% Radical scavenging concentration of compounds, Concentration | antioxidant activity compared with reference drugs Probucol and alpha-tocopherol (comparison in words) |
| --- | --- | --- |
| COc1cc(C[C@]2(O)CO[C@@H](c3ccc(O)c(OC)c3)[C@@H]2CO)ccc1O [(−)-Olivil] | 22.24 µg/mL | better than the above mentioned reference drugs |
| Cc1c(C)c2c(c(C)c1O)CCC(C)(CCCC(C)CCCC(C)CCCC(C)C)O2 (stereo not drawn) [DL α-Tocopherol, reference compound] | 47.80 µg/mL |  |
